Tests used:
[1] = target: T1, S100P (Homo sapiens, UniProt P25815); assay: S100P binding to cromolyn using affinity chromatography; details: cromolyn coupled to AF-TOYOPEARL; EGTA elution; control column did not retain
T1 construct: full-length human S100P cDNA (NM_005980) was cloned into the pTrcHis2 vector; His tag; made in house
Experimental: Cromolyn was coupled with the amino group of AF-amino TOYOPEARL to generate a cromolyn affinity column. A negative control column was prepared by blocking the amino group. Purified S100P was added to both columns, which were then washed extensively. Protein was eluted from the columns using EGTA and subjected to sodium dodecylsulfate polyacrylamide gel electrophoresis and staining with Commassie blue. Lane 1 of the gel is the molecular weight marker; lane 2 is the eluate from the control column; and lane 3 is the eluate from the cromolyn column (arrow, S100P). The gel shown is one of three independent experiments.
Cromolyn was coupled to AF-TOYOPEARL resin as described in Shishibori, et al., Three distinct anti-allergic drugs, amlexanox, cromolyn and tranilast, bind to S100A 12 and S100A13 of the S100 protein family; Biochem. J. 1999 Mar. 15; 338 (Pt 3):583-9. Briefly, 0.1 grams of cromolyn was dissolved in 1 mL of N,N-dimethylformamide and added to 7 mL (5 grams wet mass) AF-TOYOPEARL. Next, 0.5 grams of N-ethyl-N-(3-dimethylaminopropyl) carbodiimide hydrochloride, suspended in 10 mL of N,N-dimethylformamide, was added to the cromolyn+AF-TOYOPEARL slurry. The pH was adjusted to 5.0, and the slurry was incubated with gentle shaking for 48 hours at 25° C. As a negative control, a column was prepared by blocking the amino group of AF-TOYOPEARL with sodium acetate and acetic anhydride. […]

[2] = test system: Panc-1 cells; assay: Matrigel invasion assay, Panc-1; assay type: cell-based; details: 24 hours
Experimental: FIGS. 2A-2D show the effect of cromolyn on pancreatic cancer cell invasion. Panc-1 and BxPC-3 cells were plated in Bio-coat matrigel and control chambers and cultured in serum-free culture media. After 24 hours non-invaded cells in the upper chamber were removed, and cells that invaded onto the lower surface of the membrane were counted from five adjacent fields. […] Data are expressed as the percent invasion through the matrigel matrix and membrane relative to migration through the control membrane. Means and 95% confidence intervals from three independent experiments performed in triplicate are shown. Two-tailed two-sample (unpaired) Student's t-tests were used to determine P values.
Panc-1 and BxPC-3 cells were seeded in BIOCOAT matrigel invasion chambers and in control chambers without matrigel (Becton-Dickinson, Bedford, Mass.) according to the manufacturer's protocol. Panc-1 cells were seeded with S100P (100 nM) with or without cromolyn (100 μM), and BxPC-3 cells were seeded with or without cromolyn (1-100 μM). Briefly, 2.0×10^5 cells in 300 μL top solution (serum-free media) were added to each chamber and allowed to invade matrigel for 24 hours at 37° C. in a 5% CO2 atmosphere. The non-invading cells on the upper surface of membrane were removed from the chambers with a cotton swab, and the invading cells on the lower surface of the membrane were fixed and stained using a Diff-Quick stain kit (Becton Dickinson, Bedford, Mass.). After two washes with water, the chambers were allowed to air dry. The numbers of invading cells in five adjacent microscope fields per membrane were counted at 20× magnification to obtain the average number of cells per field. Data are expressed as the percent invasion through the matrigel matrix and membrane relative to the migration through the control membrane. The assays were performed three times.

[3] = target: T2, S100P binding with RAGE (Homo sapiens, UniProt P25815); assay: S100P binding with RAGE ELISA (sRAGE coated plate)
T2 construct: full-length human S100P cDNA (NM_005980) was cloned into the pTrcHis2 vector; His tag
T2 sequence (P25815 1-95): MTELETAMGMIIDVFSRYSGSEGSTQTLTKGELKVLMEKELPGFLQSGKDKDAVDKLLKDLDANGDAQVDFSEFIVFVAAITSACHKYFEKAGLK
Experimental: After removing un-bound S100P by washing with detergent, the bound S100P and RAGE complex was quantified by adding HRP labeled antibody against S100P. *, P=0.04 C5 μM versus cromolyn 5 μM. Two-tailed two-sample (unpaired) Student's t-tests were used to determine P values.

[4] = test system: MPanc-96 cells; assay: MPanc-96 cell apoptosis by flow cytometry, 72 hours; assay type: cell-based, human; details: 100 and 1000 nM, with or without gemcitabine 10 μM
Experimental: FIG. 11 compares the effects of cromolyn and C5 alone and in combination with gemcitabine on MPanc-96 cell apoptosis. MPanc-96 cells were treated with cromolyn or C5 (100 and 1000 nM) with (+) or without (−) gemcitabine (10 μM). Apoptosis was analyzed after 72 hours by flow cytometry.

S100P retained by cromolyn affinity column [1]: retained S100P
concentration achieving the same level of S100P inhibition [3]: 5 µM
interaction between S100P with RAGE [3]: blocked
Compound: O=C(O)c1cc(=O)c2c(OCC(O)COc3cccc4oc(C(=O)O)cc(=O)c34)cccc2o1 [cromolyn, disodium 1,3-bis[(2′-carboxylatochromon-5′-yl)oxy]-2-hydroxypropane]
Panc-1 cells invaded, difference S100P versus S100P+cromolyn [2]: 48.6%
Panc-1 cells invaded, mean ([2]; S100P 100 nM + cromolyn 100 μM): 9.4%
Panc-1 basal cell invasion ([2]; no S100P): did not reduce basal cell invasion
MPanc-96 cell viability [4]: inhibit MPanc-96 cell viability

Reference: US8252807B2, “Methods of inhibiting the interaction between S100 and the receptor for advanced glycation end-products” (Board of Regents, The University of Texas System, priority 2007, dated 2012)
